Source: article PMC10578352, “Identification of a Protein Arginine Methyltransferase 7 (PRMT7)/Protein Arginine Methyltransferase 9 (PRMT9) Inhibitor” (Journal of Medicinal Chemistry, 2023)

Assays:
GST-HsPRMT9 = target: T1, GST-HsPRMT9 (Homo sapiens, UniProt Q6P2P2); assay: Radioisotope-based assay (SDS-PAGE, fluorography, densitometry), HsPRMT9; format: biochemical
T1 construct: made in house; host or cells: E. coli
T1 sequence (Q6P2P2 1-845): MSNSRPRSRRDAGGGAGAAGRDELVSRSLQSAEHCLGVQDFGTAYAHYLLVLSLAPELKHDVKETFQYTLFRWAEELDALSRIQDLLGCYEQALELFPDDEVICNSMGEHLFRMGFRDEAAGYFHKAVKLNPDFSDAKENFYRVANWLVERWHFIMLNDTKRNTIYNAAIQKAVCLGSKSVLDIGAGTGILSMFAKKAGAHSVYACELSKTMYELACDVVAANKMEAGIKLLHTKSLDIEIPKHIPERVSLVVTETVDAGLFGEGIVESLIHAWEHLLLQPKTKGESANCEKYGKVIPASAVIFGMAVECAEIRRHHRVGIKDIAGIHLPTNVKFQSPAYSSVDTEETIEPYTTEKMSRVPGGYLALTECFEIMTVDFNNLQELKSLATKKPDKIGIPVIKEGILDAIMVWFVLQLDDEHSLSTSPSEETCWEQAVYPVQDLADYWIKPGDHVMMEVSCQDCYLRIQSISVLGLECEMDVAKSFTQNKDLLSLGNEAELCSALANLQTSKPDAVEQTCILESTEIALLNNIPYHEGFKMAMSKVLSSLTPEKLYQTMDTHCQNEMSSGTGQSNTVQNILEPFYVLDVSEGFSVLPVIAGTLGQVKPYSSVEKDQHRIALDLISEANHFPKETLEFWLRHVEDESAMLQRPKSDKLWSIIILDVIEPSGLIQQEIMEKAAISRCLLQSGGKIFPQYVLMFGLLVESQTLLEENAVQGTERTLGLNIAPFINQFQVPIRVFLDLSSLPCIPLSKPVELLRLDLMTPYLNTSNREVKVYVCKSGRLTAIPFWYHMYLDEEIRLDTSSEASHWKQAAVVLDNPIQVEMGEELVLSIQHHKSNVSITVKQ
Protocol: (§1) Based on these outcomes, we resolved to explore the effect on the capability to inhibit PRMT9 enzymatic activity of further reduction of the distance between the pharmacophoric moieties. […] After the experiment was repeated with 100, 250, and 500 μM concentrations of each inhibitor, half inhibition was observed only at a concentration of roughly 250 μM (Figure 4d).
(§2) […]. The experiments were performed as reported in the Experimental procedures section. GST-HsPRMT9 (a) and GST-HsPRMT7 (b) were incubated with human GST-SF3B2 (401–550) peptide or recombinant HsH2B, respectively (1 μg of enzyme, 5 μg of substrate), 0.14 μM [^3H]SAM, and the indicated concentrations of tested compounds at the corresponding optimal reaction temperature (37 °C for HsPRMT9, 15 °C for HsPRMT7). C. elegans GST-tagged enzymes PRMT9 (c) and PRMT7 (d) were incubated with GST-CeSFTB-2 (99–248) fragment or recombinant HsH2B, respectively (1 μg of enzyme, 5 μg of substrate), 0.14 μM [^3H]SAM, and the indicated concentrations of tested compounds at the corresponding optimal reaction temperature (25 °C for CePRMT9, 15 °C for CePRMT7). After SDS-PAGE, the gels were treated as previously described[48] and densitometry analysis was done using ImageJ software, and data was plotted as normalized activity to the no inhibitor controls.
(§3) Human PRMT9, C. elegans PRMT9, human PRMT7, and C. elegans PRMT7 plasmids were sequenced, expressed in E. coli as GST-fusion proteins, and purified as previously described.[48] Substrates were also sequenced and purified as described [human GST-SF3B2 (401–550);[13]C. elegans SFTB-2;[48] human histone H2B (New England Biolabs, M2505S)]. Xenopus laevis histone H2B was expressed in E. coli and purified similarly to what was previously reported by Luger et al.[72]
(§4) Reactions consisting of approximately 1 μg of enzyme (human or C. elegans GST-tagged enzymes PRMT9 and PRMT7), reacted with approximately 5 μg of substrate [for human PRMT9, human GST-SF3B2 401–550 fragment; C. elegans PRMT9 with C. elegans GST-SFTB-2 (99–248) fragment, or recombinant human histone H2B from New England Biolabs (M2505S)], were incubated for the indicated time in reaction buffer {50 mM potassium HEPES buffer, 10 mM NaCl, 1 mM dithiothreitol (DTT), pH 8.0 with 0.7 μM S-adenosyl-L-[methyl-^3H]methionine (^3H-AdoMet, PerkinElmer Life Sciences, 82.7 Ci/mmol, 0.55 mCi/mL in 10 mM H2SO4/EtOH [9:1 (v/v)])} in a final reaction volume of 60 μL. Each reaction was incubated at the corresponding optimal reaction temperature (37 °C for human PRMT9, 25 °C for C. elegans PRMT9, and 15 °C for C. elegans and human PRMT7 enzymes. MTA was dissolved in water, and a wavelength scan was taken to determine the final concentration using the extinction coefficient. The final concentrations used are indicated in the figure legends. […]. EML734, EML736, and EML709 were also dissolved in DMSO, and further dilutions were made in DMSO for the working stocks. For controls, no inhibitor reactions were created by the addition of the respective solvent (water for MTA and DMSO for EPZ015666 and EML inhibitors).
(§5) After the reaction incubations with the various concentrations of inhibitors, the reactions were quenched by adding 0.2 volume of 5× SDS sample loading buffer, and subsequently, the reactions were run on a 12.6% polyacrylamide Tris gel. To collect the radioactive signal, the gels were then treated in the same way as previously described.[48]
(§6) After various exposures were collected to ensure linear detection, densitometry analysis was done using ImageJ software, and data were plotted as normalized activity to the no inhibitor controls.

GST-HsPRMT7 = target: T2, GST-HsPRMT7 (Homo sapiens, UniProt Q9NVM4); assay: Radioisotope-based assay (SDS-PAGE, fluorography, densitometry), HsPRMT7; format: biochemical; conditions: substrate HsH2B, 15 °C, read-out: % HsPRMT7 residual activity
T2 construct: made in house; host or cells: E. coli
T2 sequence (Q9NVM4 1-692): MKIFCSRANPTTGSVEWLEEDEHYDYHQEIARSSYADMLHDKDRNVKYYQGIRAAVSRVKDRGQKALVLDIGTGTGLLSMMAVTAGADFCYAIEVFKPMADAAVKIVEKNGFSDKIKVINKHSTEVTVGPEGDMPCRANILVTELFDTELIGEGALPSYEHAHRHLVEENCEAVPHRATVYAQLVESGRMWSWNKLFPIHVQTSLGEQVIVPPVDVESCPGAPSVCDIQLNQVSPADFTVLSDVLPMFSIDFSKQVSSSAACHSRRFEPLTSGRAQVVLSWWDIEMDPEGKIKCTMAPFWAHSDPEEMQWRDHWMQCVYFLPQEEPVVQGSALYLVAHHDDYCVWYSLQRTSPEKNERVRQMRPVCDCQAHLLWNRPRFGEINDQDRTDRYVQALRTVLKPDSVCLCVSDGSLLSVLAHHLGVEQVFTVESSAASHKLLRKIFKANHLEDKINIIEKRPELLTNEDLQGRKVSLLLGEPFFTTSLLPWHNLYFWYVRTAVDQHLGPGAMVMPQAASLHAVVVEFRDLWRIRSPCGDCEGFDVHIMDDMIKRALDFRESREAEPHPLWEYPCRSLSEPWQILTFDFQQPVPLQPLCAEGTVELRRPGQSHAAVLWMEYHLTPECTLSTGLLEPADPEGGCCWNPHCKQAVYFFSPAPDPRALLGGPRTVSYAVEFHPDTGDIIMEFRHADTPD
Protocol: as §1, §2, §3, §4
as §5, with “described.[48] […]” for “described.[48]”

CePRMT9 = assay: Radioisotope-based assay (SDS-PAGE, fluorography, densitometry), CePRMT9; format: biochemical, Caenorhabditis elegans; conditions: substrate GST-CeSFTB-2 (99–248), 25 °C
Protocol: as §1, §2, §3, §4, §5, §6

CePRMT7 = target: T3, CePRMT7 (Caenorhabditis elegans, UniProt Q9XW42); assay: Radioisotope-based assay (SDS-PAGE, fluorography, densitometry), CePRMT7; format: biochemical; conditions: 100 uM; substrate HsH2B, 15 °C; read-out: % CePRMT7 residual activity
T3 construct: made in house; host or cells: E. coli
T3 sequence (Q9XW42 whole entry): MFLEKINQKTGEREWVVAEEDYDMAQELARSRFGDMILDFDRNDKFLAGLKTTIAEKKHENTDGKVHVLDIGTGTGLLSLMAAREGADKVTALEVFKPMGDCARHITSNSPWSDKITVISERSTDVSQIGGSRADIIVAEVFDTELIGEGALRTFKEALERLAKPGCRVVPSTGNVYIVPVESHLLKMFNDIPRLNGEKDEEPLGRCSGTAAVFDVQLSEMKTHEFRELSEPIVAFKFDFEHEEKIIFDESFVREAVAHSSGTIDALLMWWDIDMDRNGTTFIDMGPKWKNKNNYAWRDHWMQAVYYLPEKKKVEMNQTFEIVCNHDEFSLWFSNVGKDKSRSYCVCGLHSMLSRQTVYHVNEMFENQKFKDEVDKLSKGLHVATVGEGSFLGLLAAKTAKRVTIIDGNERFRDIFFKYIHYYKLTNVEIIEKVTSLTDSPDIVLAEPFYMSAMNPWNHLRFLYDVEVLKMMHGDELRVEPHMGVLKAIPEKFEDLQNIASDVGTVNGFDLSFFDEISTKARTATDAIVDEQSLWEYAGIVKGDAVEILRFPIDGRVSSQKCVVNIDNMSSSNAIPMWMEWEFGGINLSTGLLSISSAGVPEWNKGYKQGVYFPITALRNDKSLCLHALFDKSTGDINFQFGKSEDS
Protocol: as §1, §2, §3, §4, §5, §6

ASH1L/KMT2H = target: T4, ASH1L/KMT2H (Homo sapiens, UniProt Q9NR48); assay: HotSpot KMT activity assay, ASH1L; format: biochemical
T4 construct: the human recombinant ASH1L (residues 2046–2330, with an N-terminal His-tag); His (N); purchased Reaction Biology Corporation
From the text: ; MW = 35.4 kDa; Genbank Accession # NM_018489), or the human recombinant EZH2-containing five-member polycomb repressive complex 2 (including EZH2 residues 2–746, AEBP2 2–517, EED 2–441, RbAp48 2–425, SUZ12 2–739; all full-length; with N-terminal Flag-tag on EED and N-terminal His-tag on all others; MW = 333.8 kDa; Genbank Accession # NM_001203247, NM_001114176, NM_003797, NM_005610, NM_015355), or the human recombinant G9a (residues 913–1193, C-terminus; with an N-terminal His-tag; MW = 34.6 kDa; Genbank Accession # NM_006709.3), or the human recombinant MLL1 complex (including MLL1 residues 3745–3969, C-terminus, WDR5 22–334, C-terminus, RbBP5 1–538, C-terminus, ASH2L 2–534, C-terminus, DPY-30 1–99, C-terminus; N-terminal His-tag on all subunits; MW = 212.0 kDa; Genbank Accession # NM_005933, NM_017588, NM_005057, NM_001105214, NM_0325742), or the human recombinant SET7/9 (residues 2–366, C-terminus; with a N-terminal GST-tag and a C-terminal His-tag; MW = 68.5 kDa; Genbank Accession # NM_030648), or the human recombinant SMYD3 (residues 2–428, C-terminus; C-terminal His-tag; MW = 50.1 kDa; Genbank Accession # NM_001167740), or the human recombinant SUV39H2 (residues 46–410, C-terminus; N-terminal fusion protein with a C-terminal His-tag; MW = 98.8 kDa; GenBank Accession No. NM_001193424), or the human recombinant DOT1L (residues 1–416; N-terminal GST-tag; MW = 80.0 kDa; Genbank Accession # NM_032482) was added to a solution of the proper substrate (oligo nucleosomes for ASH1L, MLL1 complex, and DOT1L, final concentration 0.05 mg/mL; core histone for EZH2 complex and SET7/9, final concentration 0.05 mg/mL; histone H3 for SUV39H2, final concentration 5 μM; histone H3 1–21 for G9a, final concentration 2.5 μM) in freshly prepared reaction buffer (50 mM Tris-HCl (pH 8.5), 5 mM MgCl2, 50 mM NaCl, 1 mM DTT, 1 mM PMSF, 1% DMSO) and gently mixed. […] After incubation for 60 min at 30 °C, the reaction mixture was delivered to filter paper for detection (as assessed by scintillation). […] Values obtained for each compound are mean ± SD determined for two separate experiments.

[1] = substrate GST-SF3B2 (401–550), 37 °C, read-out: % HsPRMT9 residual activity

remaining activity at 100 µM (GST-HsPRMT9; [1]) | remaining activity at 250 µM (GST-HsPRMT9; 250 uM, substrate GST-SF3B2 (401–550), 37 °C, read-out: % HsPRMT9 residual activity) | remaining activity at 500 µM (GST-HsPRMT9; 500 uM, substrate GST-SF3B2 (401–550), 37 °C, read-out: % HsPRMT9 residual activity) | inhibition of HsPRMT9 (in words) (GST-HsPRMT9; up to 500 μM) | remaining activity at 100 µM (GST-HsPRMT7) | remaining activity at 100 µM (CePRMT7) | inhibition of HsPRMT9 (in words) (GST-HsPRMT9; 100 μM) | SMILES | % CePRMT9 residual activity (CePRMT9; 100 uM) | % CePRMT9 residual activity (CePRMT9; 250 uM) | % CePRMT9 residual activity (CePRMT9; 500 uM) | IC50 (ASH1L/KMT2H)
99.8% | 105% | 98% | inactive | 120% | 131% |  | O=C(NC[C@H](O)CN1CCc2ccccc2C1)c1cc(NC2COC2)ncn1 [EPZ015666, reference compound] | 139.23% | 132.20% | 105.26% | 
26% |  |  |  | 46.8% | 130% | good inhibition only at 100 μM | CSC[C@H]1O[C@@H](n2cnc3c(N)ncnc32)[C@H](O)[C@@H]1O [MTA, 5′-Deoxy-5′-(methylthio)adenosine, reference compound] | 23.57% |  |  | 
 |  |  |  |  |  |  | CN1C(=O)[C@@]23C[C@]4([C@]56C[C@@]78SS[C@@](CO)(C(=O)N7[C@H]5Nc5ccccc56)N(C)C8=O)c5ccccc5N[C@@H]4N2C(=O)[C@]1(CO)SS3 [chaetocin, reference compound] |  |  |  | 0.025 µM
